Laboratory results: PMC4408270 (Bioorganic & medicinal chemistry letters, 2015)
Where a chain is given by its changes, count along the chain named. “Also recorded” adds a separate entry of the source. Like-named read-outs stand apart in the source and are kept apart here.

How the values were obtained:
CCK1R [1] = target: T1, CCK1R (Homo sapiens, UniProt P32238); assay: Competition binding of orthosteric radioligand 125I-CCK, CHO cell membranes
T1 sequence (P32238 1-428): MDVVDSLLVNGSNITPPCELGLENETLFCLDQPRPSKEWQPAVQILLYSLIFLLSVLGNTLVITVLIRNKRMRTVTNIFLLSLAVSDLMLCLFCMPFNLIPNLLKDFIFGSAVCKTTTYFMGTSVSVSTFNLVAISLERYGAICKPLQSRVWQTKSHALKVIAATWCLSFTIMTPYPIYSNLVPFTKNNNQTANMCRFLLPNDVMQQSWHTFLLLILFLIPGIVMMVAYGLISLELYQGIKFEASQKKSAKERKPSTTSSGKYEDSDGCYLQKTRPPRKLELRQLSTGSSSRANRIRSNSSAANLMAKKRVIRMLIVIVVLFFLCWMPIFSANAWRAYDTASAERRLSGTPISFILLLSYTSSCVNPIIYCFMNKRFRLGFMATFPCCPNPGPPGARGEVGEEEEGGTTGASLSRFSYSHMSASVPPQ

CCK2R [2] = target: T2, CCK2R (Homo sapiens, UniProt P32239); assay: Intracellular calcium response in CHO-CCK2R cells; type: cell-based
T2 sequence (P32239 1-447): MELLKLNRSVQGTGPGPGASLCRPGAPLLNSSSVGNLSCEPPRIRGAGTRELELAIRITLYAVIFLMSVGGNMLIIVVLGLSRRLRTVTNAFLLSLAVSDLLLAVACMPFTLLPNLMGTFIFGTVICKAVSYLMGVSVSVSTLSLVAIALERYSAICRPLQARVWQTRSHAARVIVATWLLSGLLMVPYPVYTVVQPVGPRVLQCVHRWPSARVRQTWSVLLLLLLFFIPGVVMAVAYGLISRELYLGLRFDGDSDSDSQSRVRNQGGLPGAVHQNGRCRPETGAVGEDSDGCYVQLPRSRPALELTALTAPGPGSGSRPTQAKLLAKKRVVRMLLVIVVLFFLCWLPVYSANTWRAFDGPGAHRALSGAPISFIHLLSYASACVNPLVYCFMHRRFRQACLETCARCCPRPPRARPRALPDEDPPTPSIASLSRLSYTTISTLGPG

[3] = system: CCK2R TM chimeric constructs; assay: 125I-BDZ-2 competition binding, CCK2R-based chimeras as a group
CCK2R TM2 (T2.61N) [4] = target: T3, CCK2R TM2 (T2.61N) (Homo sapiens, UniProt P32239, T111N); assay: 125I-CCK competition binding, chimeric construct
T3 sequence (P32239 1-447 T111N): T2 sequence (P32239 1-447) with T111N

[5] = target: T4, CCK2R TM3 (V3.28T, S3.29T) (Homo sapiens, UniProt P32239, S131T/V130T); assay: 125I-CCK competition binding, chimeric construct
T4 sequence (P32239 1-447 V130T/S131T): T2 sequence (P32239 1-447) with V130T, S131T

CCK2R [6] = target: T2, CCK2R; assay: Competition binding of orthosteric radioligand 125I-CCK, CHO cell membranes; settings: 125I-CCK radioligand
[7] = target: T5, CCK2R TM6 (V6.51I, Y6.52F) (Homo sapiens, UniProt P32239, V349I/Y350F); assay: 125I-CCK competition binding, chimeric construct
T5 sequence (P32239 1-447 V349I/Y350F): T2 sequence (P32239 1-447) with V349I, Y350F

CCK1R [8] = target: T1, CCK1R; type: cell-based
CCK2R TM2 (T2.61N) [9] = target: T3, CCK2R TM2 (T2.61N); assay: 125I-BDZ-2 competition binding, chimeric construct; settings: NDB = no detectable binding
[10] = target: T5, CCK2R TM6 (V6.51I, Y6.52F); assay: 125I-BDZ-2 competition binding, chimeric construct
CCK1R [11] = target: T1, CCK1R; assay: Intracellular calcium response in CHO-CCK1R cells; type: cell-based; settings: % of the ATP (0.1mM) positive control

SMILES	IC50 (CCK1R [1])	Intracellular calcium response at CCK2R-expressing cells (CCK2R [2])	Change in binding affinity at chimeras vs wild type CCK2R [3]	IC50 (CCK2R TM2 (T2.61N) [4])	Right shift (poorer affinity) vs wild type CCK2R (CCK2R TM2 (T2.61N) [4]; 125I-CCK, CCK2R TM2 substitution)	IC50 [5]	Fold lower IC50 at CCK2R than at CCK1R (CCK2R [6])	IC50 [7]	Shift to the right in the CCK dose-response curve (CCK1R [8]; 100nM compound)	Decrease in efficacy of the CCK response (CCK1R [8]; 1µM compound)	Shift to the right in the CCK dose-response curve (CCK1R [8]; 1µM compound)	IC50, 125I-BDZ-2 (CCK2R TM2 (T2.61N) [9])	IC50 [10]	Intrinsic agonist response (CCK1R [11]; 100nM compound)	Intrinsic agonist response (CCK1R [11]; 1µM compound)	Allosteric modulatory (PAM) activity on CCK dose-response curve (CCK1R [8]; increasing concentrations of compound)
COc1ccc(N(C)C(=O)CN2C(=O)C(NC(=O)Nc3ccccc3)C(=O)N(c3ccccc3)c3ccccc32)cc1 (stereo not drawn) [GR135470X]	0.45 ± 0.104 µM	stimulated no intracellular calcium responses	none of the chimeras tested exhibited a change in binding affinities	0.519 ± 0.138 µM	10 fold	0.0101 ± 0.0016 µM	~ 9 fold	0.165 ± 0.038 µM	3.6 fold	14%	8.5 fold	NDB	0.036 ± 0.0055 µM	43%	48%	
CC(C)N(C(=O)CN1C(=O)[C@H](NC(=O)Nc2cccc(C(=O)O)c2)C(=O)N(c2ccccc2)c2ccccc21)c1ccccc1 [GI181771X, reference compound]																did not yield a significant left-shift or an increase in efficacy; also recorded: no PAM activity
O=C(CN1C(=O)C(NC(=O)Nc2ccccc2)C(=O)N(c2ccccc2)c2ccccc21)Nc1ccccc1 (stereo not drawn)		stimulated no intracellular calcium responses								11%						
